Laboratory results published in ChEMBL document CHEMBL3588836, “Development of Quinoline-2,4(1H,3H)-diones as Potent and Selective Ligands of the Cannabinoid Type 2 Receptor” (J Med Chem, 2015).
The source made the active and inactive calls. The rule behind the calls is not given here.

Key:
Cannabinoid receptor 2 [1] = target: T1, Cannabinoid receptor 2 (Homo sapiens, UniProt P34972); test: Agonist activity at CB2R (unknown origin) CHO cells stably expressing Galpha16 assessed as increase in intracellular calcium level by microplate reader based assay; format: functional, cell-based; conditions: read-out: EC50
Mus musculus [2] = test: Reduction in experimental autoimmune encephalomyelitis clinical scores in C57BL/6 mouse experimental autoimmune encephalomyelitis model of multiple sclerosis at 10 mg/kg, po administered once daily starting from day 3 after immunization until end of experiment and measured on day 21 after immunization; format: functional, organism-based
Mus musculus [3] = test: Reduction in extensive demyelination in white matter of C57BL/6 mouse experimental autoimmune encephalomyelitis model of multiple sclerosis at 10 mg/kg, po administered once daily starting from day 3 after immunization until end of experiment and measured on day 21 after immunization by Luxol fast blue staining; format: functional, organism-based
CHO [4] = test: Selectivity index, ratio of EC50 for CB1R (unknown origin) CHO cells stably expressing Galpha16 to EC50 for CB2R (unknown origin) CHO cells stably expressing Galpha16; format: cell-based; conditions: Homo sapiens
Mus musculus [5] = test: Reduction in leukocyte infiltration in spinal cord of C57BL/6 mouse experimental autoimmune encephalomyelitis model of multiple sclerosis at 10 mg/kg, po administered once daily starting from day 3 after immunization until end of experiment and measured on day 21 after immunization by hematoxylin and eosin staining; format: functional, organism-based
Cannabinoid receptor 1 [6] = target: T2, Cannabinoid receptor 1 (Homo sapiens, UniProt P21554); test: Agonist activity at CB1R (unknown origin) CHO cells stably expressing Galpha16 assessed as increase in intracellular calcium level by microplate reader based assay; format: functional, cell-based
Cannabinoid receptor 2 [7] = target: T1, Cannabinoid receptor 2; test: Agonist activity at CB2R (unknown origin) CHO cells stably expressing Galpha16 assessed as increase in intracellular calcium level by microplate reader based assay relative to CP55940; format: functional, cell-based
Cannabinoid receptor 2 [8] = target: T1, Cannabinoid receptor 2; test: Antagonist activity against CB2R (unknown origin) CHO cells stably expressing Galpha16 assessed as inhibition of CP55940-induced increase in intracellular calcium level pre-treated 10 mins before CP55940 stimulation by microplate reader based assay relative to […]; format: functional, cell-based
CHO [9] = test: Selectivity index, ratio of IC50 for CB1R (unknown origin) CHO cells stably expressing Galpha16 to IC50 for CB2R (unknown origin) CHO cells stably expressing Galpha16; format: cell-based; conditions: Homo sapiens
Cannabinoid receptor 1 [10] = target: T2, Cannabinoid receptor 1; format: functional, cell-based, CHO
Cannabinoid receptor 2 [11] = target: T1, Cannabinoid receptor 2; test: Antagonist activity against CB2R (unknown origin) CHO cells stably expressing Galpha16 assessed as inhibition of CP55940-induced increase in intracellular calcium level pre-treated 10 mins before CP55940 stimulation by microplate reader based assay; format: functional, cell-based

T1 sequence (P34972 whole entry): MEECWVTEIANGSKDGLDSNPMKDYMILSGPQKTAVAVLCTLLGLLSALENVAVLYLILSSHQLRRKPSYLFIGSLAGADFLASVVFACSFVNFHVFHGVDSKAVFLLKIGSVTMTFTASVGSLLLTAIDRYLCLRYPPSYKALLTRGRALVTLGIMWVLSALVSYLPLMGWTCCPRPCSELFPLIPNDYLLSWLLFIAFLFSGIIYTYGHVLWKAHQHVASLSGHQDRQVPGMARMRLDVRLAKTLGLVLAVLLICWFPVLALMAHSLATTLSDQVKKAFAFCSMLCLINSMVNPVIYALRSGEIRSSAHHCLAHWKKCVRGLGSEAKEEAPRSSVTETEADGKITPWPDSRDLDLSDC
T2 sequence (P21554 whole entry): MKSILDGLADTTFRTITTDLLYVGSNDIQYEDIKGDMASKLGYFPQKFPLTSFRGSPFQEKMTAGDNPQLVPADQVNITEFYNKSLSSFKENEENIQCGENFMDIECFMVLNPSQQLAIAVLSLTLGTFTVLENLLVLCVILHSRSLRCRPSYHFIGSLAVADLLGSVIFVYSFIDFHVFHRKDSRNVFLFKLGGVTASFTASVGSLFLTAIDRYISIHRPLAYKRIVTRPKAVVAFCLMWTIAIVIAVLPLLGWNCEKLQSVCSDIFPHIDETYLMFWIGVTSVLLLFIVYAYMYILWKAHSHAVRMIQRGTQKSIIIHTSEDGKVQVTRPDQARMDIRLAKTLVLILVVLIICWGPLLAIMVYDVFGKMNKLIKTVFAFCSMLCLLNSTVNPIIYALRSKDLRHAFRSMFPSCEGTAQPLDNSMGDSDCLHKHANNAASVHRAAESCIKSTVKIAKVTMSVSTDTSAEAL

In the case of `CCCCN1C(=O)/C(=C/NC2CCCCC2)C(=O)c2cccc(C)c21`, the EC50 (Cannabinoid receptor 2 [1]) is reported as 92.7 nM, the inhibition (Mus musculus [2]) is reported as “Dose-dependent effect” and the inhibition (Mus musculus [3]) is reported as “Active”. The Ratio EC50 (CHO [4]) was over 108, the inhibition (Mus musculus [5]) was “Active” and the EC50 (Cannabinoid receptor 1 [6]) was over 10000 nM. For the same compound, the Emax (Cannabinoid receptor 2 [7]) was 116%.
Compound `CCCCCN1C(=O)/C(=C/NC2CCCCC2)C(=O)c2cc(Cl)ccc21` has an Emax (Cannabinoid receptor 2 [8]) of 102%, a Ratio IC50 (CHO [9]) of over 6.62 and an IC50 (Cannabinoid receptor 1 [10]) of over 10000 nM. It also gave an IC50 (Cannabinoid receptor 2 [11]) of 1510 nM.
